According to patent US20240360091A1, “GLUN2B-SUBUNIT SELECTIVE ANTAGONISTS OF THE N-METHYL-D-ASPARTATE RECEPTORS WITH ENHANCED POTENCY AT ACIDIC PH” (Emory University, priority 2021, published 2024):
Like-named read-outs stand apart in the source and are kept apart here.

Assays:
GluN2C = GluN2C (Homo sapiens (Human), UniProt Q14957); assay: Two electrode voltage-clamp recordings, single concentration, GluN2C; format: cell-based; settings: pH 6.9
[1] = Liver microsome stability, human; format: in vitro ADME; settings: 1 μM, with cofactors, one-hour incubation at 37° C.
Protocol: (§1) Metabolic stability was assessed using human and mouse liver microsomes (Xenotech, USA). The final composition of the assay included 1 μM of the test compound or reference standards (imipramine and diclofenac sodium) prepared from DMSO or acetonitrile stock, so that the final concentration of DMSO and acetonitrile was 0.2% and 0.8%, respectively. The test compound was incubated with 0.5 mg/mL microsomal protein without (100 mM potassium phosphate buffer alone, pH 7.4) or with cofactors (5.0 mM glucose-6-phosphate, 0.06 U glucose-6-phosphate dehydrogenase, 2.0 mM MgCl2, 1.0 mM NADP^+/NADPH). The test compound and standards were incubated at 37° C. with human and mouse liver microsomes; aliquots of the reaction mixture (100 μL) were removed at 0, 5, 15, 30, 60 and 120 min. The reaction in the aliquots was stopped by the addition of 2.5 mL tert-butyl methyl ether and the samples were subjected to shaking for 15 min. […] The percent of the test compound remaining after the specified incubation period was calculated with respect to the peak areas of the test compound at time 0 min.
(§2) The compound and standards were incubated with human and mouse liver microsomes with or without cofactors, and the samples were extracted and analyzed using LC-MS/MS, as described above.

[2] = Liver microsome stability, mouse; format: in vitro ADME; settings: 1 μM, with cofactors, one-hour incubation at 37° C.
Protocol: as §1, §2

CYP2D6 = CYP2D6 (Homo sapiens (Human), UniProt P10635); assay: Cytochrome P450 inhibition (Vivid CYP blue screening kit), CYP2D6; format: in vitro ADME; settings: 1 μM
Protocol: Inhibition of CYP2D6 and CYP3A4 was accomplished using recombinant human isoforms and a Vivid CYP blue screening kit (Invitrogen, USA) by incubating 2-fold serial dilutions (9 samples) of the test compound with kit reagents and reaction buffer according to the manufacturer's methods in a 96-well plate. The plate was then incubated at room temperature for 30 min before fluorescence was measured with a plate reader. For these studies, reference standards ketoconazole (CYP3A4) and quinidine (CYP2D6) were used as controls.

[3] = Plasma protein binding, rapid equilibrium dialysis, mouse; format: in vitro ADME; settings: n=2
Protocol: (§3) Plasma protein binding was performed with a rapid equilibrium dialysis (RED) device containing dialysis membrane with a molecular weight cut-off of 8,000 Daltons according to the manufacturer's instructions (ThermoFisher, USA). The plasma samples (pH 7.4) and the test compound solution (1 or 5 μM) or reference standards (Warfarin and Propranolol, 10 μM) were combined (DMSO final conc 0.1%). 300 μL of this spiked plasma sample was added to the sample chamber, and 500 μL of blank PBS buffer (pH 7.4) was added into the buffer chamber. The RED device was sealed with adhesive film and then incubated at 37° C. with shaking at 300 rpm for 4 h. Following incubation, an aliquot (50 μL) was removed from each well (spiked plasma and buffer side) and diluted with equal volume of the corresponding opposite matrix (blank buffer or blank plasma) to nullify the matrix effect, and then extracted for analysis by LC-MS/MS. The amount of free material was determined by:
(§4) % Free=(LC-MS/MS peak area of test compound in buffer side/LC-MS/MS peak area of test compound in plasma side)×100%

[4] = Plasma protein binding, rapid equilibrium dialysis, dog; format: in vitro ADME; settings: n=1
Protocol: as §3, §4

5-HT1B = 5-HT1B (Homo sapiens (Human), UniProt P28222); assay: Off-target radioligand binding displacement (NIMH PDSP); settings: pH 7.4
Protocol: (§5) Briefly, the compound was submitted to the NIMH PDSP and screened at a single concentration (10 μM) of test article under equilibrium conditions for ability to displace specific radioligands from binding to their targets expressed in mammalian cell membranes in vitro. Each receptor target was assayed in quadruplicate and the % inhibition of radioligand binding at each target determined at pH 7.4. […]

SERT = SERT (Homo sapiens (Human), UniProt P31645); assay: as above; settings: pH 7.4
Protocol: as §5

[5] = SAD study NP10679-101, plasma pharmacokinetics; format: in vivo, human
Protocol: Each cohort consisted of 8 subjects.
(±10° C.) until shipment.

clinical = settings: human, plasma, intravenous
Protocol: Subjects checked into the clinic on Day 1 and remained in the clinic through the 48 h post-dose blood draw on Day 7, after which time they were discharged. Subjects returned to the clinic for a follow-up visit at Day 9. […] Dose levels included 25, 50 and 100 mg.
Collection tubes containing K2EDTA were be used to collect 5 mL of whole blood sample at each time point. Immediately after collection, tubes were inverted to mix the anticoagulant with the blood sample. Tubes were then centrifuged at a speed of approximately 3000 g force for 10 minutes at 4° C. Within 5 minutes of centrifugation the plasma fraction was transferred into two equal aliquots (1.25 mL each) into 2 mL cryovials and then frozen and stored at −70° C.
The method was adapted and used to measure plasma samples by TMD Pharmaceutical Research (Newark, DE). […] Analytes were detected by multiple reaction monitoring using an MDS Sciex API 4000 mass spectrometer (AB Sciex, Framingham, MA) in positive mode.
The pharmacokinetic analysis was performed based on the non-compartmental analysis approach (M. Garibaldi and D Perrier, Pharmacokinetics 2nd Edition, Chapter 11, Marcel Dekker Inc., New York, 1982) using MS Excel®.

5-HT2B = 5-HT2B (Homo sapiens (Human), UniProt P41595); assay: biochemical
Protocol: as §5

[6] = human, plasma, Cohort 1, 5 mg single IV
[7] = human, plasma, Cohort 2, 15 mg single IV
[8] = human, plasma, Cohort 3, 50 mg single IV
[9] = human, plasma, Cohort 4, 100 mg single IV
[10] = human, plasma, Cohort 5, 150 mg single IV
[11] = human, plasma, Cohort 6, 200 mg single IV

GluN2C, sequence (Q14957 20-1233, other chains not shown): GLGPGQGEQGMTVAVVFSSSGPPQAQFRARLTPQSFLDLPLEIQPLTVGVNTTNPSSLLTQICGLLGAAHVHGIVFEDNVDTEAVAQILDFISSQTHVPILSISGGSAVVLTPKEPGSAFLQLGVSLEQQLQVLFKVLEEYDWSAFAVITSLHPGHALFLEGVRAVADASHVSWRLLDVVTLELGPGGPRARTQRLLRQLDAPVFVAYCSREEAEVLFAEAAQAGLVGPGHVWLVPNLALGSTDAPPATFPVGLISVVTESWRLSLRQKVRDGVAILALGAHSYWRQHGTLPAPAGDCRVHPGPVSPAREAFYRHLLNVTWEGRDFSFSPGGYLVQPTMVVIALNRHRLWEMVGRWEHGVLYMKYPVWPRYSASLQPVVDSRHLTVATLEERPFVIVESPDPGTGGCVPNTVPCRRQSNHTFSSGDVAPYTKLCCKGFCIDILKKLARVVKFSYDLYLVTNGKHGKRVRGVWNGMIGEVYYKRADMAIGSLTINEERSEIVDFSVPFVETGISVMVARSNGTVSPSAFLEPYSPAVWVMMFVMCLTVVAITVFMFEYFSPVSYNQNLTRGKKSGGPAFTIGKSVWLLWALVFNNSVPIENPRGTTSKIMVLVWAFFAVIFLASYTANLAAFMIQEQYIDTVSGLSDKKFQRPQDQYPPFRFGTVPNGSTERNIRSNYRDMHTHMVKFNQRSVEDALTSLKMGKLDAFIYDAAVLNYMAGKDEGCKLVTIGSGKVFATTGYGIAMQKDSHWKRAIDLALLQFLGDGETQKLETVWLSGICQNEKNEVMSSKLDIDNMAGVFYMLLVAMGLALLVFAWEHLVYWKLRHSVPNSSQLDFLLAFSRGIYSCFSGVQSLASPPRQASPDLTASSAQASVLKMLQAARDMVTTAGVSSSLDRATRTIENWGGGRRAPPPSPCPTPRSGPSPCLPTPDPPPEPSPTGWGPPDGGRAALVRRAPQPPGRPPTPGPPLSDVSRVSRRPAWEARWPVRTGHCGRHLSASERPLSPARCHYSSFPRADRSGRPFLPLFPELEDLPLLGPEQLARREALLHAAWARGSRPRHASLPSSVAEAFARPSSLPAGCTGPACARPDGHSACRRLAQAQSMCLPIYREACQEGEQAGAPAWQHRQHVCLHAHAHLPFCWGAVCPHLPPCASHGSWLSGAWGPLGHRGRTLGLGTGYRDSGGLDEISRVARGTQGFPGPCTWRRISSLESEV
5-HT1B, sequence (P28222 whole entry, species assumed): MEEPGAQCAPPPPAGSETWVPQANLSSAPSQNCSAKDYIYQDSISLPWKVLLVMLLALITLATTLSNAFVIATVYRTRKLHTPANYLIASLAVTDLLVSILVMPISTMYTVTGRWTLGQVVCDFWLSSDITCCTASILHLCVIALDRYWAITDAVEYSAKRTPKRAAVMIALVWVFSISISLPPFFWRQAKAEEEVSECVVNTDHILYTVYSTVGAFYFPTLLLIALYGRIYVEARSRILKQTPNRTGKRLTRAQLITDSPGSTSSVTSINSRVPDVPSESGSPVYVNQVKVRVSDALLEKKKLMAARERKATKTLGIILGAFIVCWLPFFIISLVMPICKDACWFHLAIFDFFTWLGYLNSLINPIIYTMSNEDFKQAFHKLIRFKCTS
5-HT2B, sequence (P41595 whole entry, species assumed): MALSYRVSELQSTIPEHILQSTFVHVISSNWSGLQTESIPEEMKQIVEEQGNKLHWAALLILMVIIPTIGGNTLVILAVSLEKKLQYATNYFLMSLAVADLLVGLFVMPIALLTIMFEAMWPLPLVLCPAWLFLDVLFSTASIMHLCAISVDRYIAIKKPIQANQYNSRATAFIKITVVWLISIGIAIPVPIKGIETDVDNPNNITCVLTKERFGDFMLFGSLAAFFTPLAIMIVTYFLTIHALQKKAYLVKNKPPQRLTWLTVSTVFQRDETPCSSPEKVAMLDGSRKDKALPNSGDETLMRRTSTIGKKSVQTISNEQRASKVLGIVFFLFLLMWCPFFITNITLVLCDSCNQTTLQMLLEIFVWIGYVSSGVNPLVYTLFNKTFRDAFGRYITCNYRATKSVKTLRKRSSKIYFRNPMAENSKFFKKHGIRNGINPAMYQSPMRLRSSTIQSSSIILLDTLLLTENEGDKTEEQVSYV
SERT, sequence (P31645 whole entry, species assumed): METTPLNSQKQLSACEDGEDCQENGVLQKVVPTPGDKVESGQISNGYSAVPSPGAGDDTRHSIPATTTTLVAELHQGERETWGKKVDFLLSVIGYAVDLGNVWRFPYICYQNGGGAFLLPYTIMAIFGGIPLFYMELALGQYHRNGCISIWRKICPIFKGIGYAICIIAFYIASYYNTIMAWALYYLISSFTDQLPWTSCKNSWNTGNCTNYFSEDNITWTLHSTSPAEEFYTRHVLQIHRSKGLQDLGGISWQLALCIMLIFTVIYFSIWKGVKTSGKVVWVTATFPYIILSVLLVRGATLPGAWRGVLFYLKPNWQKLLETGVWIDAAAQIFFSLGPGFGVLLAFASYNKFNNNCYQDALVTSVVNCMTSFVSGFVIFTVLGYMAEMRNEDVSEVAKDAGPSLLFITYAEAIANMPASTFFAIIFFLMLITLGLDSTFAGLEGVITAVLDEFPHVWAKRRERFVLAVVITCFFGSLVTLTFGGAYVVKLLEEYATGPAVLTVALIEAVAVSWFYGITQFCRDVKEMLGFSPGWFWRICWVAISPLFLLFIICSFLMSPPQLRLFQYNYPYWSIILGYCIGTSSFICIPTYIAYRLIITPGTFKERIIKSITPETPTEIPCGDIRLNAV
CYP2D6, sequence (P10635 whole entry, canonical isoform): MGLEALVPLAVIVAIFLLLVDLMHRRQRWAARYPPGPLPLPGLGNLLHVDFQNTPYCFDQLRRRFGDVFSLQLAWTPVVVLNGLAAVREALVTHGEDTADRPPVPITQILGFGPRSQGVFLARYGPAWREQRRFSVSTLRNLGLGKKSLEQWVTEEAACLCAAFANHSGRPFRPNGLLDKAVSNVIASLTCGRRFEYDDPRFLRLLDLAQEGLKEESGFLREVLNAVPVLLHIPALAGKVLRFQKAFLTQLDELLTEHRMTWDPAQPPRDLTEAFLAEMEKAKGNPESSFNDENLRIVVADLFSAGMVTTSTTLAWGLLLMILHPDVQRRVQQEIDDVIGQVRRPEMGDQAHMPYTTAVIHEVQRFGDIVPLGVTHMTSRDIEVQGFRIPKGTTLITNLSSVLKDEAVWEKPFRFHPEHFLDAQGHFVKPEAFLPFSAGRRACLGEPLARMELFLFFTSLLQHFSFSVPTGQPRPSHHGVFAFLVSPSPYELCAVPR

For `O=C1CCc2cc(OC[C@H](O)CN3CCN(c4ccc(C(F)(F)F)cc4)CC3)ccc2N1` [NP10679], the “off-target inhibition against GluN2C” value (GluN2C; 3 μM) was “no noticeable off-target inhibition”, the GluN2C % residual (GluN2C; % current remaining after 3 μM compound) was 100.1 (pH 6.9) % and the “percent remaining in human liver microsomes” value [1] was 72%. For the same compound, the “percent remaining in mouse liver microsomes” value [2] was 54%, the “inhibition of CYP2D6” value (CYP2D6) was “did not inhibit” and the “bound to mouse plasma proteins” value [3] was 98.2%. The “bound to dog plasma proteins” value [4] was 98.2%, the Ki (5-HT1B) was over 10 µM and the Ki (SERT) was 0.135 µM. The “AUMC(0-T) (ng*h^2/mL)” value ([5]; Cohort 1, 5 mg single IV) was 5794 ng*h^2/mL, the “AUMC(0-inf) (ng*h^2/mL)” value ([5]; Cohort 1, 5 mg single IV) was 35856 ng*h^2/mL and the “CL” value ([5]; Cohort 1, 5 mg single IV) was 9.82 L/h. For the same compound, the “Cmax” value ([5]; Cohort 1, 5 mg single IV) was 26.96 ng/mL, the “T1/2*” value ([5]; Cohort 1, 5 mg single IV, harmonic mean) was 27.6 h and the “AUMC(0-T) (ng*h^2/mL)” value ([5]; Cohort 2, 15 mg single IV) was 18219 ng*h^2/mL. The “AUMC(0-inf) (ng*h^2/mL)” value ([5]; Cohort 2, 15 mg single IV) was 34553 ng*h^2/mL, the “AUMC(0-T) (ng*h^2/mL)” value ([5]; Cohort 3, 50 mg single IV) was 61442 ng*h^2/mL and the “AUMC(0-inf) (ng*h^2/mL)” value ([5]; Cohort 3, 50 mg single IV) was 114675 ng*h^2/mL. The “AUMC(0-T) (ng*h^2/mL)” value ([5]; Cohort 4, 100 mg single IV) was 201642 ng*h^2/mL, the “AUMC(0-inf) (ng*h^2/mL)” value ([5]; Cohort 4, 100 mg single IV) was 253651 ng*h^2/mL and the “AUMC(0-T) (ng*h^2/mL)” value ([5]; Cohort 5, 150 mg single IV) was 286984 ng*h^2/mL. For the same compound, the “AUMC(0-inf) (ng*h^2/mL)” value ([5]; Cohort 5, 150 mg single IV) was 323299 ng*h^2/mL, the “AUMC(0-T) (ng*h^2/mL)” value ([5]; Cohort 6, 200 mg single IV) was 407581 ng*h^2/mL and the “AUMC(0-inf) (ng*h^2/mL)” value ([5]; Cohort 6, 200 mg single IV) was 459611 ng*h^2/mL. For the same compound, the “CL” value ([5]; Cohort 6, 200 mg single IV) was 10.39 L/h, the “T1/2*” value ([5]; Cohort 6, 200 mg single IV, harmonic mean) was 17.4 h and the “clearance as percent of the hepatic blood flow” value ([5]; human hepatic blood flow 87 L/h) was “less than 12%”. It also gave a half-life ([5]; human, plasma, intravenous, SAD and MAD studies, read-out: half-life (converted)) of about 20 h, a clearance ([5]; human, plasma, iv, 5 mg, Cohort 1, 5 mg single IV) of 164 mL/min and a Cmax ([5]; human, plasma, iv, 5 mg, Cohort 1, 5 mg single IV, read-out: Cmax) of 30 ± 14.8 ng/mL. For the same compound, the clearance ([5]; human, plasma, iv, 15 mg, Cohort 2, 15 mg single IV) was 200 mL/min, the Cmax ([5]; human, plasma, iv, 15 mg, Cohort 2, 15 mg single IV, read-out: Cmax) was 99.2 ng/mL and the clearance ([5]; human, plasma, iv, 50 mg, Cohort 3, 50 mg single IV) was 183 mL/min. For the same compound, the Cmax ([5]; human, plasma, iv, 50 mg, Cohort 3, 50 mg single IV, read-out: Cmax) was 415 ng/mL, the clearance ([5]; human, plasma, iv, 100 mg, Cohort 4, 100 mg single IV) was 183 mL/min and the Cmax ([5]; human, plasma, iv, 100 mg, Cohort 4, 100 mg single IV, read-out: Cmax) was 746 ng/mL. The clearance ([5]; human, plasma, iv, 150 mg, Cohort 5, 150 mg single IV) was 182 mL/min, the Cmax ([5]; human, plasma, iv, 150 mg, Cohort 5, 150 mg single IV, read-out: Cmax) was 954 ng/mL and the clearance ([5]; human, plasma, iv, 200 mg, Cohort 6, 200 mg single IV) was 173 mL/min. The Cmax ([5]; human, plasma, iv, 200 mg, Cohort 6, 200 mg single IV, read-out: Cmax) was 2070 ± 798 ng/mL, the AUC(0-inf) [5, 6] was 533 ng·h/mL and the AUC(0-t) [5, 6] was 335 ng·h/mL. For the same compound, the MRT [5, 6] was 52.9 h, the half-life ([5]; human, plasma, Cohort 1, 5 mg single IV, harmonic mean, read-out: T1/2* (converted)) was 27.6 ± 12 h and the Vd ([5]; human, plasma, Cohort 1, 5 mg single IV, read-out: Vss) was 435 L. The AUC(0-inf) [5, 7] was 1280 ng·h/mL, the AUC(0-t) [5, 7] was 1140 ng·h/mL and the MRT [5, 7] was 26.1 h. It also gave a half-life ([5]; human, plasma, Cohort 2, 15 mg single IV, harmonic mean, read-out: T1/2* (converted)) of 20.4 h, a Vd ([5]; human, plasma, Cohort 2, 15 mg single IV, read-out: Vss) of 306 L and an AUC(0-inf) [5, 8] of 4680 ng·h/mL. For the same compound, the AUC(0-t) [5, 8] was 3980 ng·h/mL, the MRT [5, 8] was 23.8 h and the half-life ([5]; human, plasma, Cohort 3, 50 mg single IV, harmonic mean, read-out: T1/2* (converted)) was 17.8 h. It also gave a Vd ([5]; human, plasma, Cohort 3, 50 mg single IV, read-out: Vss) of 255 L, an AUC(0-inf) [5, 9] of 9860 ng·h/mL and an AUC(0-t) [5, 9] of 9370 ng·h/mL. It also gave an MRT [5, 9] of 24.5 h, a half-life ([5]; human, plasma, Cohort 4, 100 mg single IV, harmonic mean, read-out: T1/2* (converted)) of 19.8 h and a Vd ([5]; human, plasma, Cohort 4, 100 mg single IV, read-out: Vss) of 259 L. For the same compound, the AUC(0-inf) [5, 10] was 13800 ng·h/mL, the AUC(0-t) [5, 10] was 13600 ng·h/mL and the MRT [5, 10] was 23 h. The half-life ([5]; human, plasma, Cohort 5, 150 mg single IV, harmonic mean, read-out: T1/2* (converted)) was 17.9 h, the Vd ([5]; human, plasma, Cohort 5, 150 mg single IV, read-out: Vss) was 250 L and the AUC(0-inf) [5, 11] was 20200 ng·h/mL. For the same compound, the AUC(0-t) [5, 11] was 19700 ng·h/mL, the MRT [5, 11] was 21.9 h and the half-life ([5]; human, plasma, Cohort 6, 200 mg single IV, harmonic mean, read-out: T1/2* (converted)) was 17.4 ± 2.8 h. For the same compound, the Vd ([5]; human, plasma, Cohort 6, 200 mg single IV, read-out: Vss) was 221 L, the Vd ([5]; human, plasma, single IV 5 to 200 mg, read-out: volume of distribution) was over 221 L and the “volume of distribution as times of the total body water space” value ([5]; in vivo) was 4.5 times. For the same compound, the Cmax (clinical; 25 mg) was 213 ± 26 ng/mL, the Tmax (clinical; 25 mg) was 0.5 h and the half-life (clinical; 25 mg) was 15.4 to 36.2 h. The Cmax (clinical; 50 mg) was 394 ± 72 ng/mL, the Tmax (clinical; 50 mg) was 1 ± 0.4 h and the half-life (clinical; 50 mg) was 15.5 to 25.6 h. The half-life (clinical; 100 mg) was 12.5 to 34 h and the Ki (5-HT2B) was 1.92 µM.
